Where two headings read alike, the source gives them in different places.
Columns and labels:
[1] = test system: Herpes simplex virus type 2; test: Antiviral activity in vitro on HSV2 at different doses (Table A); type: cell-based
Method: (§1) The tests were carried out inoculating virus of various kinds on living cells from different sources, forming the respective culture in tissue culture flasks, according to the method well known to those skilled in the art. The virus forms a plurality growing seats on the bottom of the tissue culture flasks, depending on the virus concentration and the test conditions, said seats being easily identifiable with the naked eye. In such a way it is possible to establish the controls. At the same time in the tissue culture flasks wherein the compound of the invention had been introduced, at various concentrations, an inhibition is observed, as shown by a number of growing seats lower than that of the controls. Said inhibition was calculated in percent as referred in the following tables. Tests have been effected by using virus Herpes simplex, type 2 (HSV2), and virus Coxackie B, type 4 (COXB4).

[2] = test system: Polio 1; type: cell-based
[3] = test system: HSV2; test: Activity on kidney secondary cells of rabbit YRK with respect to HSV2 (Table J)
[4] = test system: virus Coxackie B, type 4 (COXB4); test: Antiviral activity in vitro on Coxackie B type 4 at different doses (Table B); type: cell-based
Method: as §1

[5] = test system: HSV2; test: Activity on kidney primary cells of rabbit with respect to HSV2 (Table I)
[6] = test system: ECHO 2; test: Inhibition of virion production, ECHO 2 on HEp-2 cells (Table E); type: cell-based; conditions: ECHO 2 10^-6; 10^-7; 10^-8, HEp-2
Method: (§2) The activity of the compound G-413 was assessed by the test of inhibition of virion production.
(§3) The test was effected with various types of virus, on HEp-2 cells.

[7] = test system: Herpes simplex virus type 2; test: Activity in vitro on HSV2 for different times of administration after infection (Table C); type: cell-based
Method: as §1, with “In order to ascertain the activity of compound G-413 "in vitro" at a dose of 10 μg on Herpes simplex” for “Tests have been effected by using”, “virus” for “virus Herpes simplex,”, “for different times of administration, a test was effected introducing the compound into the cells after the” for “(HSV2), and”, “infection.” for “Coxackie B, type 4 (COXB4).”

[8] = test system: HSV2; test: Inhibition of virion production, HSV2 on HEp-2 cells (Table G); type: cell-based, Herpes simplex virus type 2
[9] = test system: Adeno 17; test: Inhibition of virion production, Adeno 17 on HEp-2 cells (Table H); type: cell-based
Method: as §2, §3

[10] = test system: Coxsackie B4; test: Inhibition of virion production, Coxsackie B4 on HEp-2 cells (Table F); type: cell-based
Method: as §2, §3

[11] = Table D, Polio 1 10^-6, HEp-2, 20 μg per "Falcon"
[12] = Table D, Polio 1 10^-7, HEp-2, 20 μg per "Falcon"
[13] = Table D, Polio 1 10^-8, HEp-2, 20 μg per "Falcon"

Q: Which results are given for `Nc1nnc(-c2ccccc2S(N)(=O)=O)s1` [G-413]?
A: inhibition ([1]; HSV2 10^-3, 2,5 μg): 66,7%; virus growth (HSV2 with G-413) ([1]; HSV2 10^-3, 2,5 μg): 3,5 PFU/ml; inhibition ([1]; HSV2 10^-3, 5,0 μg): 66,7%; virus growth (HSV2 with G-413) ([1]; HSV2 10^-3, 5,0 μg): 3,5 PFU/ml; inhibition ([1]; HSV2 10^-3, 10,0 μg): 81,0%; virus growth (HSV2 with G-413) ([1]; HSV2 10^-3, 10,0 μg): 2,0 PFU/ml; inhibition ([1]; HSV2 10^-3, 20,0 μg): 71,5%; virus growth (HSV2 with G-413) ([1]; HSV2 10^-3, 20,0 μg): 3,0 PFU/ml; inhibition ([1]; HSV2 10^-3, 30,0 μg): 52,4%; virus growth (HSV2 with G-413) ([1]; HSV2 10^-3, 30,0 μg): 5,0 PFU/ml; inhibition ([1]; HSV2 10^-3, 40,0 μg): 52,4%; virus growth (HSV2 with G-413) ([1]; HSV2 10^-3, 40,0 μg): 5,0 PFU/ml; percent inhibition (in words) ([1]; HSV2, dose of 10 μg): very high percent inhibition; inhibition of virion production [2, 11]: 91,9%; virion production [2, 11]: 29 PFU; inhibition of virion production [2, 12]: 98,2%; virion production [2, 12]: 5 PFU; inhibition of virion production [2, 13]: 97,7%; virion production [2, 13]: 4 PFU; inhibition ([3]; HSV2 10^-2, 5 μg): 10%; virion production ([3]; HSV2 10^-2, 5 μg): 9 PFU; inhibition ([3]; HSV2 10^-2, 10 μg): 30%; virion production ([3]; HSV2 10^-2, 10 μg): 7 PFU; inhibition ([3]; HSV2 10^-2, 25 μg): 40%; virion production ([3]; HSV2 10^-2, 25 μg): 6 PFU; inhibition ([3]; HSV2 10^-2, 50 μg): 70%; virion production ([3]; HSV2 10^-2, 50 μg): 3 PFU; inhibition ([3]; HSV2 10^-2, 100 μg): 70%; virion production ([3]; HSV2 10^-2, 100 μg): 3 PFU; inhibition ([4]; COXB4 10^-6, 2,5 μg): 28,8%; virus growth (COXB4 with G-413) ([4]; COXB4 10^-6, 2,5 μg): 23,5 PFU/ml; inhibition ([4]; COXB4 10^-6, 5,0 μg): 89,9%; virus growth (COXB4 with G-413) ([4]; COXB4 10^-6, 5,0 μg): 3,0 PFU/ml; inhibition ([4]; COXB4 10^-6, 10,0 μg): 81,9%; virus growth (COXB4 with G-413) ([4]; COXB4 10^-6, 10,0 μg): 6,5 PFU/ml; inhibition ([4]; COXB4 10^-6, 20,0 μg): 80,4%; virus growth (COXB4 with G-413) ([4]; COXB4 10^-6, 20,0 μg): 6,5 PFU/ml; percent inhibition (in words) ([4]; COXB4, dose of 5 μg): very high percent inhibition; inhibition ([5]; HSV2 10^-1, 10 μg): 38,1%; virion production ([5]; HSV2 10^-1, 10 μg): 13 PFU; inhibition ([5]; HSV2 10^-1, 50 μg): 71,5%; virion production ([5]; HSV2 10^-1, 50 μg): 6 PFU; inhibition ([5]; HSV2 10^-2, 10 μg): 23,0%; virion production ([5]; HSV2 10^-2, 10 μg): 7 PFU; inhibition ([5]; HSV2 10^-2, 50 μg): 77,0%; virion production ([5]; HSV2 10^-2, 50 μg): 3 PFU; inhibition ([5]; HSV2 10^-3, 10 μg): 50,0%; virion production ([5]; HSV2 10^-3, 10 μg): 2 PFU; inhibition ([5]; HSV2 10^-3, 50 μg): 75,0%; virion production ([5]; HSV2 10^-3, 50 μg): 1 PFU; inhibition of virion production [6]: 100%; inhibition ([7]; HSV2 10^-2 + 10 μg, no delay): 62,5%; virus growth (HSV2 with G-413) ([7]; HSV2 10^-2 + 10 μg, no delay): 7,5 PFU/ml; inhibition ([7]; HSV2 10^-2, 1 h later + 10 μg): 45,0%; virus growth (HSV2 with G-413) ([7]; HSV2 10^-2, 1 h later + 10 μg): 11,0 PFU/ml; inhibition ([7]; HSV2 10^-2, 2 h later + 10 μg): 60,0%; virus growth (HSV2 with G-413) ([7]; HSV2 10^-2, 2 h later + 10 μg): 8,0 PFU/ml; inhibition ([7]; HSV2 10^-2, 4 h later + 10 μg): 77,0%; virus growth (HSV2 with G-413) ([7]; HSV2 10^-2, 4 h later + 10 μg): 4,5 PFU/ml; inhibition ([7]; HSV2 10^-2, 8 h later + 10 μg): 85,0%; virus growth (HSV2 with G-413) ([7]; HSV2 10^-2, 8 h later + 10 μg): 3,0 PFU/ml; inhibition ([7]; HSV2 10^-2, 20 h later + 10 μg): 42,5%; virus growth (HSV2 with G-413) ([7]; HSV2 10^-2, 20 h later + 10 μg): 11,5 PFU/ml; inhibition of virion production ([8]; HSV2 10^-1, HEp-2): 75,2%; virion production ([8]; HSV2 10^-1, HEp-2): 8 PFU; inhibition of virion production ([8]; HSV2 10^-2, HEp-2): 75,0%; virion production ([8]; HSV2 10^-2, HEp-2): 5 PFU; inhibition of virion production ([8]; HSV2 10^-3, HEp-2): 62,5%; virion production ([8]; HSV2 10^-3, HEp-2): 3 PFU; inhibition of virion production ([9]; Adeno 17 10^-4, HEp-2): 65,0%; virion production ([9]; Adeno 17 10^-4, HEp-2): 35 PFU; inhibition of virion production ([9]; Adeno 17 10^-5, HEp-2): 67,5%; virion production ([9]; Adeno 17 10^-5, HEp-2): 27 PFU; inhibition of virion production ([9]; Adeno 17 10^-6, HEp-2): 63,4%; virion production ([9]; Adeno 17 10^-6, HEp-2): 22 PFU; inhibition of virion production ([10]; COX B4 10^-4, HEp-2): 72,0%; virion production ([10]; COX B4 10^-4, HEp-2): 14 PFU; inhibition of virion production ([10]; COX B4 10^-5, HEp-2): 83,7%; virion production ([10]; COX B4 10^-5, HEp-2): 7 PFU; inhibition of virion production ([10]; COX B4 10^-6, HEp-2): 85,0%; virion production ([10]; COX B4 10^-6, HEp-2): 6 PFU

Q: For `C=CCNc1nnc(-c2ccccc2S(N)(=O)=O)s1` [G-445], which “inhibition of virion production” value ([2]; Table K, Polio 1 10^-6, HEp-2) is on record?
A: Its value is 73,6%.

Q: What about the virion production ([2]; Table K, Polio 1 10^-6, HEp-2) of the same molecule?
A: The virion production was 85 PFU.

Q: What about the “inhibition of virion production” value ([2]; Table K, Polio 1 10^-7, HEp-2) of the same molecule?
A: The value was 73,2%.

Q: What about the virion production ([2]; Table K, Polio 1 10^-7, HEp-2) of the same molecule?
A: Its virion production is 68 PFU.

Q: And the “inhibition of virion production” value ([2]; Table K, Polio 1 10^-8, HEp-2)?
A: The value was 44,3%.

Q: And the virion production ([2]; Table K, Polio 1 10^-8, HEp-2)?
A: Its virion production is 63 PFU.

Q: With `CNc1nnc(-c2ccccc2S(N)(=O)=O)s1` [G-444] as the molecule, how does the “inhibition of virion production” value ([2]; Table K, Polio 1 10^-6, HEp-2) read?
A: Its value is 64,8%.

Q: And the virion production ([2]; Table K, Polio 1 10^-6, HEp-2)?
A: The virion production was 113 PFU.

Q: What about the “inhibition of virion production” value ([2]; Table K, Polio 1 10^-7, HEp-2) of the same molecule?
A: The value was 65,7%.

Q: What about the virion production ([2]; Table K, Polio 1 10^-7, HEp-2) of the same molecule?
A: The virion production was 87 PFU.

Q: And the “inhibition of virion production” value ([2]; Table K, Polio 1 10^-8, HEp-2)?
A: Its value is 26,6%.

Q: And the virion production ([2]; Table K, Polio 1 10^-8, HEp-2)?
A: Its virion production is 83 PFU.
